For assay [1], the system named is SW480 colon carcinoma cells. The experiment in a line: Cell viability assay (CellTiter-Glo) in SW480 cells. To be noted: Homo sapiens, 96 h, four days. It counts as cell-based, human. (Cellular ATP, detected with luciferase, serves as a proxy for viable cell number.)
Assay [2] relates to primary human fibroblasts derived from IPF patients (LL29 cells), α-smooth muscle actin. The assay is described as follows: Inhibition of fibrotic process: αSMA in TGF-β1 treated LL29 fibroblasts. Format: cell-based. To be noted: Homo sapiens, Fibroblast; for EC50: 96 h, LL29 cells, TGF-β1 20 ng/mL, 4 days, % cells positive for αSMA; for inhibition at 10 µM: read-out: percent inhibition at 10 μM. Put shortly:
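LL29 fibroblasts from IPF patients, in F12 medium with 1% FBS, treated with TGF-β1 plus compound; TGF-β1 with DMSO as positive control, DMSO alone as negative control. After 4 days' incubation, SYTOX green nucleic acid stain added at 1 μM final, 30 min at room temperature.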

The next assay addresses recombinant GSK3β kinase (Homo sapiens (Human), UniProt P49841). The experiment in a line: GSK3β kinase assay (Ser/Thr 09 peptide Z-lyte, FRET). Format: biochemical. The note with it: GSK3β kinase, 46 μM ATP, one hour; method calls values IC50.
Assay [3] has as its target recombinant DYRK1A kinase (Homo sapiens (Human), UniProt Q13627). The assay is described as follows: DYRK1A kinase assay (Ser/Thr 18 peptide Z-lyte, FRET). The note with it: DYRK1A kinase, 30 μM ATP, one hour; method calls values IC50.
Procedure: Each compound was dissolved in DMSO as a 10 mM stock and used to prepare compound source plates.
This is a non-radioactive assay using fluorescence resonance energy transfer (FRET) between coumarin and fluorescein to detect kinase activity which is represented as a ratio of coumarin emission/fluorescein emission.
The mixture was allowed to incubate with the representative compounds for one hour at room temperature. All reactions were performed in duplicate. Unphosphorylated (“0% Control”) and phosphorylated (“100% control”) forms of Ser/Thr 18 served as control reactions. Additionally, an 11-point dose-response curve of Staurosporine (1 uM top) was run to serve as a positive compound control.
After incubation, Development Reagent A was diluted in Development Buffer then added to the reaction and allowed to further incubate for one hour at room temperature.
Dose-response curves were generated and inhibitory concentration (IC50) values were calculated using non-linear regression curve fit in the Dotmatics' Studies Software (Bishops Stortford, UK).
For another assay, the system named is IL-6. The assay is described as follows: IL-6 inhibition in LPS-stimulated human peripheral blood mononuclear cells (HTRF). Format: cell-based. The note with it: Homo sapiens, PBMC; for EC50: huPBMCs, LPS 50 ng/mL, 22 hours, IL-6 HTRF; for inhibition at 10 µM: read-out: percent inhibition at 10 μM. Put shortly: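 Fresh human PBMCs at 1×10e6 cells/mL in 1% FBS-RPMI were pretreated with compound for 2 h, then stimulated with 50 ng/mL E. coli 0111:B4 LPS for a further 22 h at 37 °C. IL-6 was measured by HTRF (665/620 nm ratio). Values were normalized to DMSO and fitted 4-parameter for EC50.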

In assay [4] the test system is Wnt-responsive promoter (Sp5-Luc reporter) in SW480 colon carcinoma cells. The assay is described as follows: Sp5-Luc reporter gene screening assay for Wnt activity in SW480 cells. It counts as cell-based, human. The note with it: Homo sapiens, 36 to 48 hours, luminescence. Put shortly: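 SW480 cells stably carrying a luciferase reporter under an Sp5 promoter with eight TCF/LEF sites, plated at 4,000 cells/well in DMEM with 1% FBS and incubated 36 to 48 hours at 37° C. Luminescence normalized to DMSO-only cells; EC50 fitted by four-parameter nonlinear regression.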

Sequence of recombinant GSK3β kinase (P49841 whole entry): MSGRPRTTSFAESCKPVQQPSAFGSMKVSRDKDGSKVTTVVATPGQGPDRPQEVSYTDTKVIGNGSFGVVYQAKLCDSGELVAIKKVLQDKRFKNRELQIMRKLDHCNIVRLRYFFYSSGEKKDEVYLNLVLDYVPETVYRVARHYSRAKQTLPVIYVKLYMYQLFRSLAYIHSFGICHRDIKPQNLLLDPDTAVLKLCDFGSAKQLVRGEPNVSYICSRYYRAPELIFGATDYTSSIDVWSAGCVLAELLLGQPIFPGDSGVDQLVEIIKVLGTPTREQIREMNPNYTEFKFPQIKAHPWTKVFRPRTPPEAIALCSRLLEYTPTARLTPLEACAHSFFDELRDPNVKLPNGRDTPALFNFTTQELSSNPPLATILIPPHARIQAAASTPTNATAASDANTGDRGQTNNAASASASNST

As usually defined, the EC50 is the concentration needed to bring the measured effect to its halfway point. One may read the inhibition as the change of the read-out against control, counted positive when it falls. Consider `Cc1nnc(-c2ccc3cnc(NC(=O)c4coc(C5CCN(C)CC5)n4)cc3c2)s1` [Compound 69, N-(6-(5-Methyl-1,3,4-thiadiazol-2-yl)isoquinolin-3-yl)-2-(1-methylpiperidin-4-yl)oxazole-4-carboxamide], for which the half-maximal effective concentration (EC50) in assay [1] is 1290 nM; in assay [2] it was > 10000 nM; at recombinant GSK3β kinase, 6770 nM; in assay [3], 527 nM; with IL-6, > 10000 nM; in assay [4] it was 2150 nM. For the same compound, the inhibition at 10 µM in assay [2] stood at 43.9%; with IL-6, 2.3%.
For `Cc1ncc(-c2ccc3cnc(NC(=O)c4cnn(C(C)C)c4)cc3c2)n1C` [Compound 61, N-(6-(1,2-Dimethyl-1H-imidazol-5-yl)isoquinolin-3-yl)-1-isopropyl-1H-pyrazole-4-carboxamide], the concentration giving a half-maximal response (EC50) is 111 nM in assay [1]; 318 nM in assay [2]; 6790 nM on recombinant GSK3β kinase; 5 nM in assay [3]; 566 nM in the assay with IL-6; 63 nM in assay [4].
`Cc1nnc(-c2ccc3cnc(NC(=O)c4cnn(C5CCN(C)CC5)c4)cc3c2)s1` [Compound 65, N-(6-(5-Methyl-1,3,4-thiadiazol-2-yl)isoquinolin-3-yl)-1-(1-methylpiperidin-4-yl)-1H-pyrazole-4-carboxamide]: the EC50 in assay [1] was 48 nM; in assay [2], 219 nM; on recombinant GSK3β kinase it was 628 nM; in assay [3] it was 6 nM; in the assay with IL-6, 361 nM; in assay [4], 30 nM.
As to `Cn1cc(-c2ccc3cnc(NC(=O)c4csc(C5CCNCC5)n4)cc3c2)cn1` [Compound 25, N-(6-(1-Methyl-1H-pyrazol-4-yl)isoquinolin-3-yl)-2-(piperidin-4-yl) thiazole-4-carboxamide], the concentration giving a half-maximal response (EC50) in assay [1] came out at 876 nM; in assay [2] it was 1190 nM; at recombinant GSK3β kinase it was 3060 nM; in assay [3], 39 nM; in the assay with IL-6 it was 2580 nM; in assay [4], 546 nM.
As to `Cc1ncc(-c2ccc3cnc(NC(=O)c4cnn(C)c4)cc3c2)n1C` [Compound 60, N-(6-(1,2-Dimethyl-1H-imidazol-5-yl)isoquinolin-3-yl)-1-methyl-1H-pyrazole-4-carboxamide], the EC50 came to 405 nM in assay [1]; 770 nM in assay [2]; 4010 nM at recombinant GSK3β kinase; 4 nM in assay [3]; 1580 nM with IL-6; 121 nM in assay [4].
With `Cn1cncc1-c1ccc2cnc(NC(=O)c3cnn(C4CC4)c3)cc2c1` [Compound 44, 1-Cyclopropyl-N-(6-(1-methyl-1H-imidazol-5-yl)isoquinolin-3-yl)-1H-pyrazole-4-carboxamide], the concentration giving a half-maximal response (EC50) worked out at 94 nM in assay [1]; 115 nM in assay [2]; 1660 nM on recombinant GSK3β kinase; 1 nM in assay [3]; 356 nM with IL-6; 37 nM in assay [4].
As to `Cn1cnc(C(=O)Nc2cc3cc(-c4cncn4C)ccc3cn2)c1` [Compound 48, 1-Methyl-N-(6-(1-methyl-1H-imidazol-5-yl)isoquinolin-3-yl)-1H-imidazole-4-carboxamide], the EC50 is 3550 nM in assay [1]; > 10000 nM in assay [2]; 3380 nM on recombinant GSK3β kinase; 18 nM in assay [3]; > 10000 nM in the assay on IL-6; 1160 nM in assay [4]. For the same compound, the inhibition at 10 µM amounted to 6.7% in assay [2] and 17.8% with IL-6.
`CC(C)N1CCC(c2nc(C(=O)Nc3cc4cc(-c5cn(C)nn5)ccc4cn3)co2)CC1` [Compound 38, 2-(1-Isopropylpiperidin-4-yl)-N-(6-(1-methyl-1H-1,2,3-triazol-4-yl)isoquinolin-3-yl)oxazole-4-carboxamide]: the EC50 in assay [1] was 1630 nM; in assay [2], > 10000 nM; on recombinant GSK3β kinase, 1350 nM; in assay [3], 180 nM; in the assay with IL-6 it was > 10000 nM; in assay [4], 555 nM. The inhibition at 10 µM in assay [2] was 3.9%; in the assay with IL-6 it was 5.3%.
